Common to all, as to test: relative viability (nuclei count vs DMSO), 5 days (fraction); higher = more cells survive
Compound in assay [1]: C[C@H]([C@@H](C(=O)N)NC(=O)[C@@H]1CSSC[C@@H](C(=O)N[C@H](C(=O)N[C@@H](C(=O)N[C@H](C(=O)N1)CCCCN)CC2=CNC3=CC=CC=C32)CC4=CC=C(C=C4)O)NC(=O)[C@@H](CC5=CC=CC=C5)N)O [CAP-232] + Nc1nc2[nH]cc(CCc3ccc(C(=O)N[C@@H](CCC(=O)O)C(=O)O)cc3)c2c(=O)[nH]1 [Pemetrexed] (partner 0.2 µM)
A digest of the protocol: (§1)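 After 5 days of treatment, lung cancer cells in 1536-well plates were fixed and stained in a single step (final 0.05% Triton X-100, 1% formaldehyde, 1 ug/ml Hoechst) and their nuclei counted on 4× images. Treatment had been applied by pin tool the day after seeding as one drug alone or as a fixed anchor-drug dose with five library-drug doses (not always all listed) in √10 steps. Relative viability is the nuclei count of treated wells divided by that of vehicle wells, and values are medians of duplicate plates.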

Compound in assay [2]: C[C@H]([C@@H](C(=O)N)NC(=O)[C@@H]1CSSC[C@@H](C(=O)N[C@H](C(=O)N[C@@H](C(=O)N[C@H](C(=O)N1)CCCCN)CC2=CNC3=CC=CC=C32)CC4=CC=C(C=C4)O)NC(=O)[C@@H](CC5=CC=CC=C5)N)O [CAP-232] + Nc1ncn([C@H]2C[C@H](O)[C@@H](CO)O2)c(=O)n1 [Decitabine] (partner 2 µM)
A digest of the protocol: as §1

Compound in assay [3]: C[C@H]([C@@H](C(=O)N)NC(=O)[C@@H]1CSSC[C@@H](C(=O)N[C@H](C(=O)N[C@@H](C(=O)N[C@H](C(=O)N1)CCCCN)CC2=CNC3=CC=CC=C32)CC4=CC=C(C=C4)O)NC(=O)[C@@H](CC5=CC=CC=C5)N)O [CAP-232] + CC(C)C[C@H](NC(=O)[C@H](Cc1ccccc1)NC(=O)c1cnccn1)B(O)O [Bortezomib] (partner 0.002 µM)
A digest of the protocol: as §1

Compound in assay [4]: C[C@H]([C@@H](C(=O)N)NC(=O)[C@@H]1CSSC[C@@H](C(=O)N[C@H](C(=O)N[C@@H](C(=O)N[C@H](C(=O)N1)CCCCN)CC2=CNC3=CC=CC=C32)CC4=CC=C(C=C4)O)NC(=O)[C@@H](CC5=CC=CC=C5)N)O [CAP-232] + C[C@@H](Oc1cc(-c2cnn(C3CCNCC3)c2)cnc1N)c1c(Cl)ccc(F)c1Cl [Crizotinib] (partner 1 µM)
A digest of the protocol:
as §1

Compound in assay [5]: C[C@H]([C@@H](C(=O)N)NC(=O)[C@@H]1CSSC[C@@H](C(=O)N[C@H](C(=O)N[C@@H](C(=O)N[C@H](C(=O)N1)CCCCN)CC2=CNC3=CC=CC=C32)CC4=CC=C(C=C4)O)NC(=O)[C@@H](CC5=CC=CC=C5)N)O [CAP-232] + COc1cccc2cc(-c3nc([C@H]4CC[C@H](C(=O)O)CC4)n4ncnc(N)c34)[nH]c12 [OSI-027] (partner 0.5 µM)
A digest of the protocol:
as §1

For three cell lines, relative viability results are on record in the supplement of paper PMC10307832.

On to NCI-H23, for which the relative viability in assay [1] (first compound 0.4 µM) is 0.686; in assay [1] (first compound 1.265 µM), 0.492; in assay [1] (first compound 4 µM), 0.746; in assay [1] (first compound 12.65 µM), 0.623; in assay [2] (first compound 0.4 µM), 0.293; in assay [2] (first compound 1.265 µM) it was 0.295. The relative viability in assay [2] (first compound 4 µM) worked out at 0.296; in assay [2] (first compound 12.65 µM) it was 0.295; in assay [3] (first compound 0.4 µM), 1.15; in assay [3] (first compound 1.265 µM) it was 1.03; in assay [3] (first compound 4 µM) it was 1.06; in assay [3] (first compound 12.65 µM), 0.953. Moreover, the relative viability in assay [4] (first compound 0.4 µM) stood at 0.532; in assay [4] (first compound 1.265 µM), 0.444; in assay [4] (first compound 4 µM), 0.462; in assay [4] (first compound 12.65 µM), 0.362; in assay [5] (first compound 0.4 µM), 0.64; in assay [5] (first compound 1.265 µM), 0.529. Besides, the relative viability is 0.687 in assay [5] (first compound 4 µM) and 0.487 in assay [5] (first compound 12.65 µM).
Turning to NCI-H322M, the relative viability stood at 0.621 in assay [1] (first compound 0.4 µM); 0.645 in assay [1] (first compound 1.265 µM); 0.599 in assay [1] (first compound 4 µM); 0.788 in assay [1] (first compound 12.65 µM); 0.706 in assay [2] (first compound 0.4 µM); 0.654 in assay [2] (first compound 1.265 µM). Further, the relative viability was 0.701 in assay [2] (first compound 4 µM); 0.704 in assay [2] (first compound 12.65 µM); 1.53 in assay [3] (first compound 0.4 µM); 1.2 in assay [3] (first compound 1.265 µM); 1.14 in assay [3] (first compound 4 µM); 1.28 in assay [3] (first compound 12.65 µM). In addition, the relative viability is 1.01 in assay [4] (first compound 0.4 µM); 0.903 in assay [4] (first compound 1.265 µM); 0.841 in assay [4] (first compound 4 µM); 0.778 in assay [4] (first compound 12.65 µM); 0.569 in assay [5] (first compound 0.4 µM); 0.528 in assay [5] (first compound 1.265 µM). The relative viability in assay [5] (first compound 4 µM) came out at 0.52; in assay [5] (first compound 12.65 µM), 0.437.
NCI-H441: the relative viability in assay [1] (first compound 0.4 µM) was 0.25; in assay [1] (first compound 1.265 µM), 0.234; in assay [1] (first compound 4 µM), 0.281; in assay [1] (first compound 12.65 µM), 0.262; in assay [2] (first compound 0.4 µM), 0.26; in assay [2] (first compound 1.265 µM) it was 0.242. Further, the relative viability in assay [2] (first compound 4 µM) amounted to 0.286; in assay [2] (first compound 12.65 µM), 0.234; in assay [3] (first compound 0.4 µM) it was 0.429; in assay [3] (first compound 1.265 µM) it was 0.357; in assay [3] (first compound 4 µM), 0.392; in assay [3] (first compound 12.65 µM) it was 0.436. In addition, the relative viability in assay [4] (first compound 0.4 µM) is 0.711; in assay [4] (first compound 1.265 µM), 0.636; in assay [4] (first compound 4 µM), 0.639; in assay [4] (first compound 12.65 µM), 0.734; in assay [5] (first compound 0.4 µM) it was 0.527; in assay [5] (first compound 1.265 µM), 0.683. Moreover, the relative viability in assay [5] (first compound 4 µM) came to 0.602; in assay [5] (first compound 12.65 µM) it was 0.686.
